Source: patent US20050153288A1, “Methods for identifying gibberellin responsive genes using cultured vegetable cells” (priority 2001, published 2005)
“Also recorded” adds a separate entry of the source. Where two headings read alike, the source gives them in different places.

Tests used:
[1] = tested on: CIGR1 gene and CIGR2 gene; assay: Induction of CIGR1 and CIGR2 gene expression by gibberellin in cultured rice cells (Northern blot hybridization); type: cell-based, rice (Oryza sativa cv. Nipponbare); conditions: for induction of CIGR1 and CIGR2 gene expression by gibberellin species: cultured rice cells treated for ten minutes
Procedure: (§1) (1) Rice cultured cells: The cultured cells of rice were induced from germinating rice seeds (Oryza sativa cv. Nipponbare) on an N6 agar plate containing 1 ppm 2,4-D (2,4-dichlorophenoxyacetic acid). The cells were successively cultured in liquid N6 medium as follows: Once a week, cells of about 1 ml in volume were transferred to 150 ml of N6 medium. Every two weeks, cell clusters were passed through a 20-mesh metal screen to reduce their size. Cells which had been transferred to 30 ml of medium with no screen treatment, and then shake-cultured for four to six days, were used for extraction of RNA for Northern blotting.
(§2) (2) RNA extraction: The extraction of total RNA from cultured cells and green leaves of rice was carried out according to the phenol-SDS method. A Polytron homogenizer was used to homogenize living tissue in the presence of about tenfold or more volume to tissue-volume of phenol (about 90% saturated with water), and a volume of buffer solution (50 mM Tris-HCl pH 9.0, 1% SDS, 50 mM NaCl) equal to this phenol volume. The aqueous phase obtained by centrifugation was then repeatedly extracted with phenol. Total nucleic acid was precipitated by adding 0.6 volume of isopropanol to the extract and stirring the mixture. After dissolving the precipitate in water, a 0.25 volume of 10M LiCl was added, and the mixture was cooled on ice. High molecular weight RNA was collected by centrifugation, washed with 70% ethanol, and then dissolved in a small volume of water to be used as an RNA sample.
[…] Gibberellin (GA3 dissolved in ethanol) was added to make up each final concentration, cells were cultured with shaking for predetermined periods, and then used for RNA extraction. Nipponbare plants grown for three weeks after seeding were sprayed with gibberellin. The third and fourth leaves were collected at certain intervals, and total RNA was extracted. Elicitor treatment was carried out by directly adding aqueous elicitor solution to cultured cells of rice.
(4) Hybridization: RNA for Northern hybridization was denatured using the glyoxal method. 2.7 μl of glyoxal (final concentration, 1M), 1.6 μl of sodium phosphate (pH 7.0, final concentration, 10 mM), and 8 μl of dimethylsulfoxide (final concentration, 50%) were added to 10 μg of total RNA (3.7 μl). The mixture was kept at 50° C. for one hour and then subjected to electrophoresis in 1.4% agarose (10 mM sodium phosphate, pH 7.0). After electrophoresis, RNA was blotted onto a nylon membrane (Biodyne A). The RNA was fixed onto the membrane by treatment for two hours at 80° C. Hybridization was carried out in a mixture of 50% formamide, 0.1% SDS, 0.1 mg/ml salmon sperm DNA, 5×SSPE (0.9 M NaCl, 50 mM sodium phosphate, 5 mM EDTA, pH 7.4), and 5× Denhardt's solution (0.1% bovine serum albumin, 0.1% Ficoll, 0.1% polyvinylpyrrolidone) at 42° C. for one day. The membrane was then washed with 0.1×SSC (15 mM NaCl, 1.5 mM sodium citrate) three times for five minutes each time at room temperature, and twice for 30 minutes each time at 65° C., and then exposed on x-ray film.

[2] = tested on: CHRC, a carotenoid-associated protein in the chromoplasts of cucumber petals; conditions: cited from earlier work
[3] = tested on: CIGR1 gene and CIGR2 gene; assay: Expression of CIGR1 and CIGR2 genes in green leaves of rice after GA3 spraying; type: in vivo, rice (Nipponbare); conditions: third and fourth leaves, three weeks after seeding, sprayed with GA3 (50 μM)
Procedure: as §2
(§3) (3) A method for gibberellin treatment of cultured cells and green leaves: The cultured cells were pre-washed several times with 2,4-D-free N6 medium, and then suspended in the same medium and shaken for two hours at 25° C. […]
In the presence of auxins, cultured plant cells are thought to be in an undifferentiated state. […] Thus, the responses of these two genes to gibberellin were analyzed in the green leaves of rice. […]

[4] = tested on: α-amylase; conditions: aleurone layer of wheat, cited from earlier work
[5] = tested on: CIGR1 gene and CIGR2 gene; assay: Effect of protein kinase/phosphatase inhibitors on chitin heptamer induction of CIGR1 and CIGR2 genes in cultured rice cells; type: cell-based; conditions: inhibitor added ten minutes before treatment; okadaic acid 1 μM, lavendustin A 30 μM, K-252a 20 μM
Procedure: (§4) FIG. 11 depicts photographs representing the effects of protein kinase inhibitors on elicitor response and gibberellin response. The following compounds were added ten minutes before treatment with chitin heptamer (GN7) or gibberellin (GA3). (A): the positive elicitor response control; (B) : okadaic acid (1 μM); (C) : lavendustin A (30 μM); (D) : K-252a (20 μM).
as §1, §2, §3

[6] = tested on: CIGR1 gene and CIGR2 gene; assay: Effect of protein kinase/phosphatase inhibitors on GA3 induction of CIGR1 and CIGR2 genes in cultured rice cells; type: cell-based; conditions: inhibitor added ten minutes before treatment; okadaic acid 1 μM, lavendustin A 30 μM, K-252a 20 μM
Procedure: as §4, §1, §2, §3

[7] = tested on: CIGR1 gene and CIGR2 gene; assay: Elicitor (chitin/chitosan oligomer) induction of CIGR1 and CIGR2 gene expression in cultured rice cells (Northern blot hybridization); type: cell-based, rice (Oryza sativa cv. Nipponbare)
Procedure: as §1, §2
(3) A method for gibberellin treatment of cultured cells and green leaves: The cultured cells were pre-washed several times with 2,4-D-free N6 medium, and then suspended in the same medium and shaken for two hours at 25° C. Gibberellin (GA3 dissolved in ethanol) was added to make up each final concentration, cells were cultured with shaking for predetermined periods, and then used for RNA extraction. Nipponbare plants grown for three weeks after seeding were sprayed with gibberellin. The third and fourth leaves were collected at certain intervals, and total RNA was extracted. […]

[8] = tested on: elicitor-responsive genes; conditions: K-252a pretreatment; cited from earlier work
[9] = ten minutes of GA3 treatment, 2,4-D-free medium

C=C1C[C@]23C[C@H]1CC[C@H]2[C@@]12CC[C@H](O)[C@@](C)(C(=O)O1)[C@H]2[C@@H]3C(=O)O [GA4]
induction of CIGR1 and CIGR2 gene expression by gibberellin species [1]: induced the expression of both genes

C=C1C[C@]23C[C@@]1(O)CC[C@H]2[C@@]12C=C[C@H](O)[C@@](C)(C(=O)O1)[C@H]2[C@@H]3C(=O)O [GA3]
GA3 concentration required for induction of CHRC [2]: at least 10^−7 M | GA3 concentration up to which CHRC expression level increased approximately linearly [2]: up to 10^−4 M | time of maximum transient expression of both genes after spraying [3]: 30 min | expression of CIGR1 and CIGR2 genes over time after GA3 treatment ([1]; cells pre-washed with 2,4-D-free medium, two hours of pre-culture in the same medium): Transient expression with a maximum at ten minutes after treatment | induction of CIGR1 and CIGR2 gene expression by gibberellin species [1]: induced the expression of both genes | change in gene expression (CIGR1, CIGR2) after GA3 treatment ([1]; suspension-cultured cells in medium comprising 2,4-D, observed for three hours after treatment): no significant change in expression amount was found; also recorded: No change in gene expression was detected | GA3 concentration at which induction of expression of both genes began to appear [1, 9]: 10^−6 M | GA3 concentration at which induction reached near saturation [1, 9]: ~10^−4 M

C=C1[C@@H](O)[C@@H]2O[C@]3(CC[C@H](/C=C/[C@@H](C)[C@@H]4CC(C)=C[C@@]5(O[C@H](C[C@@](C)(O)C(=O)O)CC[C@H]5O)O4)O3)CC[C@H]2O[C@@H]1[C@@H](O)C[C@H](C)[C@H]1O[C@@]2(CCCCO2)CC[C@H]1C [okadaic acid]
inhibition of gibberellin's induction of α-amylase [4]: specifically inhibited; also recorded: inhibited by okadaic acid | inhibition of induction of both genes by chitin heptamer [5]: hardly inhibited | inhibition of induction of both genes by GA3 [6]: inhibited almost completely

O=C(O)c1cc(N(Cc2ccccc2O)Cc2cc(O)ccc2O)ccc1O [Lavendustin A]
inhibition of induction of both genes by chitin heptamer [5]: hardly inhibited | inhibition of induction of both genes by GA3 [6]: inhibited induction by GA3 almost completely

CC(=O)N[C@H]1[C@H](O[C@@H]([C@H](O)[C@H](C=O)NC(C)=O)[C@H](O)CO)O[C@H](CO)[C@@H](O[C@@H]2O[C@H](CO)[C@@H](O[C@@H]3O[C@H](CO)[C@@H](O[C@@H]4O[C@H](CO)[C@@H](O[C@@H]5O[C@H](CO)[C@@H](O[C@@H]6O[C@H](CO)[C@@H](O)[C@H](O)[C@H]6NC(C)=O)[C@H](O)[C@H]5NC(C)=O)[C@H](O)[C@H]4NC(C)=O)[C@H](O)[C@H]3NC(C)=O)[C@H](O)[C@H]2NC(C)=O)[C@@H]1O [chitin heptamers, N-acetylchitoheptaose]
response of both genes to chitin oligomers and chitosan oligomers ([7]; chitin monomers to heptamers, tetramer and heptamer chitosan oligomers): strongest responses | time up to which expression continued to increase ([7]; time-course after chitin heptamer treatment): up to 90 minutes | increase in mRNA amount of both genes after elicitor treatment ([7]; time-course in cultured rice cells): Significant increases in mRNA amount were observed in both genes five minutes after treatment

C=C1C[C@]23C[C@H]1CC[C@H]2[C@]1(C(=O)O)CC[C@H](O)[C@@](C)(C(=O)O)[C@H]1[C@@H]3C(=O)O [GA13]
induction of CIGR1 and CIGR2 gene expression by gibberellin species [1]: only active type gibberellins induced the expression of both genes

COC(=O)[C@@]1(O)C[C@H]2O[C@]1(C)n1c3ccccc3c3c4c(c5c6ccccc6n2c5c31)C(=O)NC4 [K-252-A]
inhibition of gibberellin's induction of α-amylase ([4]; listed as K252a): hardly inhibited induction | inhibition of induction of both genes by chitin heptamer [5]: almost completely inhibited | inhibition of induction of expression of elicitor-responsive genes [8]: strongly inhibited | inhibition of induction of both genes by GA3 [6]: almost completely inhibited

C=C1C[C@]23C[C@@]1(O)CC[C@H]2[C@@]12CC[C@H](O)[C@@](C)(C(=O)O1)[C@H]2[C@@H]3C(=O)O [GA1]
induction of CIGR1 and CIGR2 gene expression by gibberellin species [1]: induced the expression of both genes

C=C1C[C@]23C[C@@]1(O)CC[C@H]2[C@]1(C(=O)O)CCC[C@@](C)(C(=O)O)[C@H]1[C@@H]3C(=O)O [GA17]
induction of CIGR1 and CIGR2 gene expression by gibberellin species [1]: only active type gibberellins induced the expression of both genes
